Starred links: 1 amine or outer side, 2 acyl side, 3 side chain; linkers in the order of their positions; H or OH if unused. Positions of bridges follow the written chain, without caps; N, C: chain ends. Non-standard residues stand in square brackets, D forms with d. Residues, ends and D or L forms follow the SMILES beside them. Groups on a side chain read outwards from the residue. *: point of attachment. Trp(1-Me) = Cn1cc(C[C@H](N)C(=O)O)c2ccccc21; Abu(4-yl) = O=C([C@H](CC[*:3])N[*:1])[*:2]; C18 diacid = O=C(O)CCCCCCCCCCCCCCCCC(=O)*; γGlu = O=C(O)[C@H](CCC(=O)[*:2])N[*:1]; NMeI = CC[C@H](C)[C@H](NC)C(=O)O; AEEA = NCCOCCOCC(=O)O; Sar = CNCC(=O)O

Experiment [1] deals with classical complement pathway. The experiment is described as follows: In vitro haemolysis assay (inhibition of classical complement pathway). The class given is cell-based, human. To be noted: Table 3; human serum, sensitized sheep red blood cells; read-out: IC50[nM], in vitro analysis of inhibition of hemolysis. A digest of the protocol: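 Serially diluted compound (9 points) was preincubated 15 min at room temperature with diluted human serum, titrated per batch to give 70-90% maximal haemolysis, in Tris/casein buffer pH 7.4 with Mg2+/Ca2+. Antibody-sensitized sheep erythrocytes were then added for 30 min at 37° C, and the reaction was stopped with EDTA. Haemolysis was read at A405, with IC50 from 4PL fit.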

Experiment [2] deals with T1, Human C3 (Homo sapiens, UniProt P01024).
T1 construct: purchased Complement tech A1 13c (so in the source)
The experiment is described as follows: Affinity measurement by surface plasmon resonance (SPR) with immobilized C3. It is filed as binding. The following applies: Table 7; immobilized C3, 25° C., pH 7.4. How it is done:
Surface plasmon resonance (SPR) was used to characterize peptides with respect to their binding affinity (Kd) for C3. Human C3 (Complement tech cat #A1 13c) was immobilised on individual flow cells of CM5 sensor chips (GE Healthcare) using standard amine coupling to a density of approximately 3000 resonance units (RU) in a buffer consisting of 10 mM phosphate pH 7.4, 150 mM NaCl, 0.05% Tween20. For interaction experiments a multi-cycle experiment approach was used and performed using either a Biacore™ T200 or Biacore™ X100 instrument (GE Healthcare) at 25° C. Peptides were injected in increasing concentration series (5-8 different concentrations) for 60-120 s at a flow rate of 30 μL/min in a buffer consisting of 10 mM Tris buffer at pH 7.4, with 150 mM NaCl and 0.05% Tween20. This was followed by a dissociation period for up to 10 min. […] Sensorgrams were double-referenced (reference surface, blanks) prior to analysis of the kinetic profiles by globally fitting data to a 1:1 Langmuir binding model to obtain association and dissociation rates for calculation of the equilibrium dissociation constant Kd. Each peptide was tested at in at least 2 independent experiments.

The target of experiment [3] is T2, Human C3 (human, UniProt P01024 23-1663).
T2 construct: In SPR the bought human C3 was immobilised on CM5 chips by amine coupling; In the haemolysis assay the C3 is that of diluted human serum; also called complement C3
Briefly: SPR, C3 immobilised. In outline: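 Peptide series (5-8 concentrations, 60-120 s, up to 10 min dissociation, Tris pH 7.4 running buffer) flowed over ~3000 RU amine-coupled human C3; MgCl₂ regeneration; at least two independent runs.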
For orientation: In SPR one partner is held on a chip, and binding of the other changes the refractive index at the surface.

For experiment [4], the target named is T2, Human C3. The experiment is described as follows: cell-based or functional assay.

T2 sequence (P01024 23-1663 limits assumed): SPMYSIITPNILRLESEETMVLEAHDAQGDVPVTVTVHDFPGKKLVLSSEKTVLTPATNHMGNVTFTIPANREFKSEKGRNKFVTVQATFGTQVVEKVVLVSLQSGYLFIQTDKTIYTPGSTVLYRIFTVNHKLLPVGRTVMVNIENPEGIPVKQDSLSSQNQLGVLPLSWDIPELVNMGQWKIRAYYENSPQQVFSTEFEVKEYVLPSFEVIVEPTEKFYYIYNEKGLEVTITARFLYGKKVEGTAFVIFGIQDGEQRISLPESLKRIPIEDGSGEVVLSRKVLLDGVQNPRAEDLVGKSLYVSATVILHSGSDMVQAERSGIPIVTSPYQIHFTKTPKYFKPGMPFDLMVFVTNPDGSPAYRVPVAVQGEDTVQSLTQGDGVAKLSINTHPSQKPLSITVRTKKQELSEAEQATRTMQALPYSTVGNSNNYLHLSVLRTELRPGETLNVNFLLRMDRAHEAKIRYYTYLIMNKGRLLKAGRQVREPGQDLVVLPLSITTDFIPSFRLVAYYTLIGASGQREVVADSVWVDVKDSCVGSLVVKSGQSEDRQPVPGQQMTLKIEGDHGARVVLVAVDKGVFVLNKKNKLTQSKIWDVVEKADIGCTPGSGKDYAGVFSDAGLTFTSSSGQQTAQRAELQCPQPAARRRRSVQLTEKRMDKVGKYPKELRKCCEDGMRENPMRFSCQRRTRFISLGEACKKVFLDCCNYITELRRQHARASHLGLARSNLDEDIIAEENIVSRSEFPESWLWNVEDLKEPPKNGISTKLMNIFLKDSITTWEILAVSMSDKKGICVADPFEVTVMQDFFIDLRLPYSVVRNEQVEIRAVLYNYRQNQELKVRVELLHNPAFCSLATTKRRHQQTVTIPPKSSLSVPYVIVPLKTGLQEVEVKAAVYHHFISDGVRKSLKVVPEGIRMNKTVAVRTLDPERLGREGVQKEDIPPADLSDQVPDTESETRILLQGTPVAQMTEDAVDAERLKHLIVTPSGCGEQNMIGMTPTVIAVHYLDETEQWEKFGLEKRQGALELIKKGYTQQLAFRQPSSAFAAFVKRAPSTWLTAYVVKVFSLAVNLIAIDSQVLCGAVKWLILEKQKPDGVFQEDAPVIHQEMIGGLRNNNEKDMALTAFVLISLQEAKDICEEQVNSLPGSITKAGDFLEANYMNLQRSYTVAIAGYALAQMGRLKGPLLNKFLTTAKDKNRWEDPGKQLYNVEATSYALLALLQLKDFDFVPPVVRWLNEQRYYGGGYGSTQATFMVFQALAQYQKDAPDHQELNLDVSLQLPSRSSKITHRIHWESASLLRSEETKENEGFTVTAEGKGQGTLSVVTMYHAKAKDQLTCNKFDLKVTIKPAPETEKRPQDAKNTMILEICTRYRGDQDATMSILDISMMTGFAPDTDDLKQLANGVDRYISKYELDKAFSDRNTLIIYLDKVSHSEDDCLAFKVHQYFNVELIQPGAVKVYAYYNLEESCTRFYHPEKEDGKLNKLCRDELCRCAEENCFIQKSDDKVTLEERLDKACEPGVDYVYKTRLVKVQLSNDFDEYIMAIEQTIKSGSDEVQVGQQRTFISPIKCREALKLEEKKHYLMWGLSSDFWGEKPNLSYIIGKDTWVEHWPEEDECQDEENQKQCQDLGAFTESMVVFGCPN

In the case of `CC[C@H](C)[C@@H]1NC(=O)[C@@H](NC(=O)[C@H](Cc2ccccc2)NC(=O)[C@H](CCC(=O)O)NC(=O)[C@H](CO)NC(C)=O)CCSC[C@@H](C(=O)N(C)CC(=O)N[C@@H](CCC(=O)O)C(=O)NCC(=O)N[C@@H](CCC(=O)O)C(=O)NCCOCCOCC(=O)N[C@@H](CCC(=O)O)C(=O)N[C@@H](CO)C(=O)N[C@@H](CCCCNC(=O)CC[C@H](NC(=O)CNC(=O)CC[C@H](NC(=O)CCCCCCCCCCCCCCCCC(=O)O)C(=O)O)C(=O)O)C(N)=O)NC(=O)[C@H](CCCNC(=N)N)NC(=O)[C@H](Cc2c[nH]cn2)NC(=O)[C@H](CCC(=O)O)NC(=O)CN(C)C(=O)[C@H](Cc2c[nH]c3ccccc23)NC(=O)[C@H](CC(=O)O)NC(=O)[C@H](CCC(N)=O)NC(=O)[C@H](Cc2cn(C)c3ccccc23)NC1=O` [Compound 166, Ac-SEFhC(1)I[1-Me-Trp]QDW[Sar]EHRA(1)[Sar]EGE[Peg3]ES-K([17-carboxy-heptadecanoyl][γGlu]G[γGlu])-NH2] (Ac-SEF[Abu(4-yl)]I[Trp(1-Me)]QDW[Sar]EHRC[Sar]EGE[AEEA]ESK([γGlu-Gly-γGlu-C18 diacid])-NH2; thioether 4-14), the IC50 in experiment [1] is less than 100 nM. Besides, in experiment [2], the Kd came to 6.5 nM.
The like results for `CC[C@H](C)[C@H](NC(=O)[C@H](N)Cc1ccc(O)cc1)C(=O)N[C@H]1CSSC[C@@H](C(=O)N(C)[C@H](C(N)=O)[C@@H](C)CC)NC(=O)[C@H](CCCNC(=N)N)NC(=O)[C@H](Cc2c[nH]cn2)NC(=O)[C@H](C)NC(=O)CN(C)C(=O)[C@H](Cc2c[nH]c3ccccc23)NC(=O)[C@H](CC(=O)O)NC(=O)[C@H](CCC(N)=O)NC(=O)[C@H](Cc2cn(C)c3ccccc23)NC(=O)[C@H]([C@@H](C)CC)NC1=O` [Compound 48, H-{d}Y1C(1)I[1-Me-Trp]QDW[Sar]AHRC(1)[N-Me-Ile]-NH2] (H-[dY]ICI[Trp(1-Me)]QDW[Sar]AHRC[NMeI]-NH2; disulfide 3-13) were, in that order, less than 100 nM and 0.12 nM.
Consider `CC[C@H](C)[C@@H]1NC(=O)[C@@H](NC(=O)[C@H](Cc2ccccc2)NC(=O)[C@H](CCC(=O)O)NC(=O)[C@H](CO)NC(C)=O)CCSC[C@@H](C(=O)N(C)CC(=O)N[C@@H](CCC(=O)O)C(=O)NCC(=O)N[C@@H](CCC(=O)O)C(=O)NCCOCCOCC(=O)NCCOCCOCC(=O)N[C@@H](CCCCNC(=O)CC[C@H](NC(=O)CNC(=O)CC[C@H](NC(=O)CCCCCCCCCCCCCCCCC(=O)O)C(=O)O)C(=O)O)C(N)=O)NC(=O)[C@H](CCCNC(=N)N)NC(=O)[C@H](Cc2c[nH]cn2)NC(=O)[C@H](CCC(=O)O)NC(=O)CNC(=O)[C@H](Cc2c[nH]c3ccccc23)NC(=O)[C@H](CC(=O)O)NC(=O)[C@H](CCC(N)=O)NC(=O)[C@H](Cc2cn(C)c3ccccc23)NC1=O` [Compound 152] (Ac-SEF[Abu(4-yl)]I[Trp(1-Me)]QDWGEHRC[Sar]EGE[AEEA][AEEA]K([γGlu-Gly-γGlu-C18 diacid])-NH2; thioether 4-14), for which the IC50 in experiment [1] is less than 100 nM. Also, in experiment [2], the Kd came to 16 nM.
Consider `CC[C@H](C)[C@@H]1NC(=O)[C@@H](NC(=O)[C@H](Cc2ccccc2)NC(=O)[C@H](CCC(=O)O)NC(=O)[C@H](CO)NC(C)=O)CSSC[C@@H](C(=O)N(C)CC(=O)N[C@@H](CCC(=O)O)C(=O)NCCOCCOCC(=O)NCCOCCOCC(=O)N[C@@H](CCCCNC(=O)CC[C@H](NC(=O)CNC(=O)CC[C@H](NC(=O)CCCCCCCCCCCCCCCCC(=O)O)C(=O)O)C(=O)O)C(N)=O)NC(=O)[C@H](CCCNC(=N)N)NC(=O)[C@H](Cc2c[nH]cn2)NC(=O)[C@H](CCC(=O)O)NC(=O)CN(C)C(=O)[C@H](Cc2c[nH]c3ccccc23)NC(=O)[C@H](CC(=O)O)NC(=O)[C@H](CCC(N)=O)NC(=O)[C@H](Cc2cn(C)c3ccccc23)NC1=O` [Compound 144, Ac-SEFC(1)I[1-Me-Trp]QDW[Sar]EHRC(1)[Sar]E[Peg3][Peg3]-K([17-carboxy-heptadecanoyl][γGlu]G[γGlu])-NH2] (Ac-SEFCI[Trp(1-Me)]QDW[Sar]EHRC[Sar]E[AEEA][AEEA]K([γGlu-Gly-γGlu-C18 diacid])-NH2; disulfide 4-14), for which the IC50 in experiment [1] is less than 100 nM. This molecule also showed a Kd in experiment [2] of 1.5 nM.
The like results for `CC[C@H](C)[C@@H]1NC(=O)[C@@H](NC(=O)[C@H](Cc2ccccc2)NC(=O)[C@H](CCC(=O)O)NC(=O)[C@H](CO)NC(C)=O)CSSC[C@@H](C(=O)N(C)CC(=O)N[C@@H](CCC(=O)O)C(=O)N[C@@H](C)C(N)=O)NC(=O)[C@H](CCCNC(=N)N)NC(=O)[C@H](Cc2c[nH]cn2)NC(=O)[C@H](CCC(=O)O)NC(=O)CNC(=O)[C@H](Cc2c[nH]c3ccccc23)NC(=O)[C@H](CC(=O)O)NC(=O)[C@H](CCC(N)=O)NC(=O)[C@H](Cc2cn(C)c3ccccc23)NC1=O` [Compound 75] (Ac-SEFCI[Trp(1-Me)]QDWGEHRC[Sar]EA-NH2; disulfide 4-14) were, in that order, less than 100 nM and 1.5 nM.
As to `CC[C@H](C)[C@@H]1NC(=O)[C@@H](NC(=O)[C@H](Cc2ccccc2)NC(=O)[C@H](CCC(=O)O)NC(C)=O)CSCC[C@@H](C(=O)N[C@@H](CCC(=O)O)C(=O)NCC(=O)N[C@@H](CCC(=O)O)C(=O)N[C@@H](CCCCNC(=O)CC[C@H](NC(=O)CNC(=O)CC[C@H](NC(=O)CCCCCCCCCCCCCCCCC(=O)O)C(=O)O)C(=O)O)C(N)=O)NC(=O)[C@H](CCCNC(=N)N)NC(=O)[C@H](Cc2c[nH]cn2)NC(=O)[C@H](CCC(=O)O)NC(=O)CNC(=O)[C@H](Cc2c[nH]c3ccccc23)NC(=O)[C@H](CC(=O)O)NC(=O)[C@H](CCC(N)=O)NC(=O)[C@H](Cc2cn(C)c3ccccc23)NC1=O` [Compound 161, Ac-EFA(1)I[1-Me-Trp]QDWGEHRhC(1)EGE-K([17-carboxy-heptadecanoyl][γGlu]G[γGlu])-NH2] (Ac-EFCI[Trp(1-Me)]QDWGEHR[Abu(4-yl)]EGEK([γGlu-Gly-γGlu-C18 diacid])-NH2; thioether 3-13), in experiment [1], the IC50 was less than 100 nM. In experiment [2], this molecule came in with a Kd of 3.4 nM.
For `CC[C@H](C)[C@@H]1NC(=O)[C@@H](NC(=O)[C@H](Cc2ccccc2)NC(=O)[C@H](CCC(=O)O)NC(=O)[C@H](CO)NC(C)=O)CSSC[C@@H](C(=O)N(C)CC(=O)N[C@@H](CCC(=O)O)C(=O)NCC(=O)N[C@@H](C)C(=O)N[C@@H](CCCCNC(=O)COCCOCCNC(=O)CC[C@H](NC(=O)COCCOCCNC(=O)CNC(=O)CC[C@H](NC(=O)CCCCCCCCCCCCCCCCC(=O)O)C(=O)O)C(=O)O)C(N)=O)NC(=O)[C@H](CCCNC(=N)N)NC(=O)[C@H](Cc2c[nH]cn2)NC(=O)[C@H](CCC(=O)O)NC(=O)CNC(=O)[C@H](Cc2c[nH]c3ccccc23)NC(=O)[C@H](CCC(=O)O)NC(=O)[C@H](CCC(N)=O)NC(=O)[C@H](Cc2cn(C)c3ccccc23)NC1=O` [Compound 120] (Ac-SEFCI[Trp(1-Me)]QEWGEHRC[Sar]EGAK([AEEA-γGlu-AEEA-Gly-γGlu-C18 diacid])-NH2; disulfide 4-14) the same measures were less than 250 nM and 28 nM.

B1: Compound 85 (peptide)
peptide: Ac-EFCI[Trp(1-Me)]QDWGEHRCES-NH2
modifications: disulfide 3-13
SMILES: CC[C@H](C)[C@@H]1NC(=O)[C@@H](NC(=O)[C@H](Cc2ccccc2)NC(=O)[C@H](CCC(=O)O)NC(C)=O)CSSC[C@@H](C(=O)N[C@@H](CCC(=O)O)C(=O)N[C@@H](CO)C(N)=O)NC(=O)[C@H](CCCNC(=N)N)NC(=O)[C@H](Cc2c[nH]cn2)NC(=O)[C@H](CCC(=O)O)NC(=O)CNC(=O)[C@H](Cc2c[nH]c3ccccc23)NC(=O)[C@H](CC(=O)O)NC(=O)[C@H](CCC(N)=O)NC(=O)[C@H](Cc2cn(C)c3ccccc23)NC1=O
Consider B1, for which the affinity in experiment [3], expressed as Kd, was 1.3 nM. In addition, the “IC50[nM], inhibition of hemolysis” value in experiment [4] is less than 100 nM.

B2: Compound 86 (peptide)
peptide: Ac-SEFCI[Trp(1-Me)]QDWGEHKC[Sar]EA-NH2
modifications: disulfide 4-14
SMILES: CC[C@H](C)[C@@H]1NC(=O)[C@@H](NC(=O)[C@H](Cc2ccccc2)NC(=O)[C@H](CCC(=O)O)NC(=O)[C@H](CO)NC(C)=O)CSSC[C@@H](C(=O)N(C)CC(=O)N[C@@H](CCC(=O)O)C(=O)N[C@@H](C)C(N)=O)NC(=O)[C@H](CCCCN)NC(=O)[C@H](Cc2c[nH]cn2)NC(=O)[C@H](CCC(=O)O)NC(=O)CNC(=O)[C@H](Cc2c[nH]c3ccccc23)NC(=O)[C@H](CC(=O)O)NC(=O)[C@H](CCC(N)=O)NC(=O)[C@H](Cc2cn(C)c3ccccc23)NC1=O
With B2, the Kd in experiment [3] was determined as 2.6 nM. In experiment [4], the “IC50[nM], inhibition of hemolysis” value was less than 100 nM.

Broadly, the IC50 is the concentration that inhibits the measured activity by half. As usually defined, the Kd is the free concentration of one partner at which half of the binding sites on the other are occupied at equilibrium, for simple one-to-one binding. High values mean a looser complex, low ones a tighter complex.
